Tests used:
BV2 cells = details: NF-κB/STAT3 downregulation; cited from earlier work
hippocampus of TBI rats = test: Controlled cortical impact TBI: hippocampal Western blot; type: in vivo, rat
Procedure: (§1) This study used male Sprague-Dawley rats weighing 300-350 g and aged 8 weeks, obtained from DBL Co. (Chungcheongbuk-do, Republic of Korea). The rats were housed in a controlled environment with a temperature of 20 ± 2 °C, a relative humidity of 55 ± 5%, and a 12-hour light/dark cycle. They were provided ad libitum access to food and water. To minimize stress associated with transportation, animals underwent a one-week acclimatization period before the start of the experiments. All experimental procedures were conducted in compliance with the guidelines of the National Institutes of Health for the care and use of laboratory animals and were approved by the Hallym University Institutional Animal Care and Use Committee (protocol # Hallym 2022-23, approved on July 15, 2022). This manuscript follows the principles outlined in the Animal research: reporting in vivo experiments (ARRIVE) guidelines.
(§2) A controlled cortical impact (CCI) model was used to induce TBI in rats. Animals were anesthetized with 1-1.5% isoflurane in a 30:70 oxygen-to-nitrous oxide mixture and securely positioned in a stereotaxic frame. A 3 mm craniotomy was performed using a portable drill at a site 2.8 mm lateral to the midline and 3.0 mm posterior to Bregma. TBI was induced using an Impact One™ Stereotaxic Impactor (Leica Biosystems) equipped with a 3 mm flat-tip, set to deliver an impact at a velocity of 5 m/s and a depth of 3 mm. Throughout the procedure, body temperature was maintained at 36-37.5°C using a homeothermic blanket system to prevent hypothermia. […] At designated time points (3 hours, 24 hours, or 2 weeks post-injury), animals were euthanized via transcardial perfusion with saline, followed by 4% paraformaldehyde (PFA). Brains were post-fixed in 4% PFA for 1 hour, cryoprotected in 30% sucrose, and sectioned at a 30 μm thickness using a cryostat microtome (CM1850; Leica, Wetzlar, Germany). Brain sections were stored in cryoprotectant solution at 4°C until further analysis.
Hippocampal samples were homogenized in a lysis buffer containing RIPA buffer (IBS-BR002, iNtRON, Republic of Korea), phosphatase inhibitor (Sigma, USA), and protease inhibitor (Sigma, USA). The homogenates were centrifuged at 14,000 × g for 20 minutes at 4°C, and the supernatants were collected. Protein concentrations were determined using the Bradford protein assay. For analysis, 25 μg of protein from each sample was mixed with SDS loading buffer, separated through SDS-PAGE, and transferred onto PVDF membranes. Membranes were blocked for 2 hours at room temperature with either 5% skim milk or 3% BSA to minimize nonspecific binding. Subsequently, the membranes were incubated overnight at 4°C with primary antibodies diluted in blocking buffer. The following primary antibodies were used: p-p38 MAPK (1:1000, Cell Signaling), p-eIF2α (1:1000, Cell Signaling), p-PERK (1:1000, Cell Signaling), LAMP2 (1:1000, Invitrogen), LC3B (1:1000, Invitrogen), IL-1β (1:500, Gene Tex), TNF-α (1:500, Abcam), and β-actin (1:10,000, Cell Signaling). After primary antibody incubation, membranes were washed in TBS-T (Bio-Rad) and incubated with secondary antibodies for 1 hour at room temperature. Signals were visualized using a chemiluminescence detection system and captured with a bioimaging instrument (Amersham Imager 680, Marlborough, USA).

[1] = neuroinflammation or brain injury; cited from earlier work
TBI rats = test: Controlled cortical impact TBI: Morris water maze; type: in vivo, rat; details: vs TBI-vehicle
Procedure: as §1, §2
The MWM is a well-established behavioral test used to assess cognitive function in rodents. […] The following parameters were recorded during the training sessions: 1) escape latency (time taken to reach the platform), 2) distance traveled to locate the platform, and 3) the number of target crossings (times the platform location was crossed). […] The time spent in the target quadrant (where the platform had been located during training) and the number of crossings over the platform location were recorded. Behavioral data, including escape latency, distance traveled, target crossings, and time spent in the target quadrant, were tracked and analyzed using smart video-tracking software (Panlab, Carrer de l'Energia, Spain).

[2] = tested on: primary hippocampal neurons; test: Scratch injury: cAMP ELISA; type: cell-based, rat; details: 10 μM AMX immediately after scratch, 6 hours post-injury
Procedure: Primary hippocampal neurons were obtained from embryonic day 18 (E18) Sprague-Dawley rat embryos. Pregnant rats were anesthetized using 2-3% isoflurane in a gas mixture of 70% nitrous oxide and 30% oxygen. Following euthanasia, the hippocampi were carefully dissected, minced, and enzymatically dissociated using TrypLE Express (Gibco, NY, USA) for 10 minutes at 37°C. The tissue was further mechanically dissociated using fire-polished glass pipettes, and the resulting cell suspension was filtered through a 70 μm cell strainer to remove debris. Neurons were seeded at a density of 3 × 10^5 cells per well in 24-well plates pre-coated with poly-L-lysine (Sigma-Aldrich, Saint Louis, MO, USA). Cells were maintained in neurobasal medium supplemented with B-27 (Thermo Fisher Scientific, Waltham, MA, USA), GlutaMAX (Gibco), and penicillin-streptomycin. The cultures were incubated at 37.5°C in a humidified atmosphere containing 5% CO₂. After seven days of growth, neurons were fixed with 4% paraformaldehyde (PFA) for 15 minutes at room temperature and subsequently stored at 4°C until their further use for immunostaining. A scratch injury model was used to mimic TBI in vitro. […] After the treatment period, neuronal damage and recovery were assessed using appropriate evaluation methods. […]

[3] = hippocampus, 24 hours after TBI
[4] = rat hippocampus, 24 hours post-TBI
[5] = rat hippocampus, 24 hours post-TBI, vs TBI-vehicle

For CC(C)c1ccc2oc3nc(N)c(C(=O)O)cc3c(=O)c2c1 [AMX, amlexanox], the LPS-induced microglial activation (BV2 cells) is listed as “attenuated LPS-induced microglial activation”, the “IL-1β expression (Western blot)” value (hippocampus of TBI rats; [3]) is listed as “markedly reduced the expression of both cytokines” and the “TNF-α expression (Western blot)” value (hippocampus of TBI rats; [3]) is listed as “markedly reduced the expression of both cytokines”. The LAMP2 expression (hippocampus of TBI rats; [4]) was “preserved LAMP2 and LC3B expression”, the LC3B expression (hippocampus of TBI rats; [4]) was “preserved LAMP2 and LC3B expression” and the “phosphorylation of PERK” value (hippocampus of TBI rats; [5]) was “significantly reduced the phosphorylation levels”. The “phosphorylation of eIF2α” value (hippocampus of TBI rats; [5]) was “significantly reduced the phosphorylation levels”, the “phosphorylation of p38 MAPK” value (hippocampus of TBI rats; [5]) was “significantly reduced the phosphorylation levels” and the “crossing of the BBB” value [1] was “can cross the BBB under pathological conditions”. For the same compound, the “MWM distance to the hidden platform” value (TBI rats; days 8-12 post-TBI) was “reduced target distances”, the MWM escape latency (TBI rats; days 8-12 post-TBI) was “shorter escape latency” and the MWM platform crossings (TBI rats; probe trial) was “more frequent platform crossings”. The “MWM time spent in the target quadrant” value (TBI rats; probe trial) was “increased time spent in the target quadrant” and the “cAMP levels after scratch injury (ELISA)” value [2] was “restored cAMP and p-PKA levels”.

— publication PMC12320245 (International Journal of Biological Sciences, 2025)
